Molecules are shown by their SMILES.

Assay [1] concerns S. pyogenes. Put plainly: MIC50 / MIC and MBC testing. The assay is classed as cell-based, Streptococcus pyogenes. Conditions: Table 35 (Example 25); 1% ECMO or 1% ECMT, 0.05% CBD pure isolate. From the text: (§1) The MIC50 test evaluates the lowest concentration of a test substance that prevents 50% of the growth of bacteria or fungi. This is a measure of the antibacterial or anti-fungal activity of the test sample. MBC is the lowest concentration of an antibacterial agent required to kill a bacterium. Similarly, Minimum fungicidal concentration (MFC) is the lowest concentration of an antifungal agent required to kill a fungus or a yeast.
(§2) The disclosed topical compositions may be tested for MIC50 and MBC using publicly available testing criteria. For example, test samples of the desired active compound can be prepared and serially diluted to give 11 or more different concentrations covering, for example, a 1000-fold range. For example, the test samples may include 50%-0.1% of a stock test sample (e.g., stock samples disclosed in Table 1) that are combined with select bacteria and fungi and incubated over a prescribed period of time. The MIC50 is useful to determine the lowest concentration of each test sample (mixture of active materials) that inhibits 50% of the growth of the microbe as determined by measurement of OD650 nm using a Versa Max 96 well plate reader. […]
(§3) Additional data Minimum Inhibitory Concentration (MIC) data on East Cape manuka oil and β-triketones provide further context. […] MIC data is measured at the first sign of bacterial growth inhibition. […]

Assay [2] concerns C. acnes. Put plainly: MIC50 / MIC and MBC testing. The assay is classed as cell-based, Cutibacterium acnes.
Text: as §1
The disclosed topical compositions may be tested for MIC50 and MBC using publicly available testing criteria. For example, test samples of the desired active compound can be prepared and serially diluted to give 11 or more different concentrations covering, for example, a 1000-fold range. For example, the test samples may include 50%-0.1% of a stock test sample (e.g., stock samples disclosed in Table 1) that are combined with select bacteria and fungi and incubated over a prescribed period of time. The MIC50 is useful to determine the lowest concentration of each test sample (mixture of active materials) that inhibits 50% of the growth of the microbe as determined by measurement of OD650 nm using a Versa Max 96 well plate reader. Measurement of cell concentration can be made at several time points.
Additional data Minimum Inhibitory Concentration (MIC) data on East Cape manuka oil and β-triketones provide further context. (Source: Plant & Food). MIC data is measured at the first sign of bacterial growth inhibition. These figures can be expected to be lower than MIC50 data, though this is not always the case. Published MIC data on palmarosa oil is also included for further context, In Vitro Antimicrobial and Antioxidant Activities of Some Cymbopogon Species in Essential Oil-Bearing Grasses—The genus Cymbopogon, Khunkitti, W. (2010) Chapter 6, Edited by A. Akhila., Medicinal and Aromatic Plants—Industrial Profiles, CRC Press Taylor & Francis Group. Example stock sample solutions of active mixtures that show promising results and are suitable for MIC50 and MBC testing are listed in Table 7. […]

For assay [3], the system named is gram positive bacteria S aureus, MRSA, S pyogenes, C. acnes. Put plainly: Average MIC over gram positive bacteria (Example 25). The class given is cell-based. The source says: Cannabidiol (CBD) content in CBD oil can be highly variable. For this reason, pure CBD isolate was used in these examples. 1% ECMT or 1% ECMO were used in these examples. Since CBD oil contains 5-10% CBD, a concentration of 0.05% CBD pure isolate (equating to 0.5% to 1% whole CBD oil) was used in these tests.
The average MIC of CBD alone is 0.2 times that of ECMO-314. The average MIC of CBD alone is 0.1 times that of ECMT-314. […] The average MIC of ECMT alone is 0.8 times that of ECMT-314.

Assay [4] has as its system S. aureus. Put plainly: MIC50 / MIC and MBC testing. The assay is classed as cell-based, Staphylococcus aureus. The conditions noted are these: Table 35 (Example 25); 1% ECMO or 1% ECMT, 0.05% CBD pure isolate.
Text: as §1, §2, §3

The test system of assay [5] is MRSA. Put plainly: MIC50 / MIC and MBC testing. The assay is classed as cell-based, methicillin-resistant Staphylococcus aureus. The conditions noted are these: Table 35 (Example 25); 1% ECMO or 1% ECMT, 0.05% CBD pure isolate.
Text: as §1, §2, §3

With `C=C(C)[C@@H]1CCC(C)=C[C@H]1c1c(O)cc(CCCCC)cc1O` [0.05% CBD isolate, cannabidiol], the MIC came to 0.002 % v/v in assay [1]; 0.006 % v/v in assay [2] (Table 35 (Example 25), 1% ECMO or 1% ECMT, 0.05% CBD pure isolate); 0.05 % v/v in assay [4]; 0.0125 % v/v in assay [5]. Further, in assay [2] (C. acnes considered on its own), the “MIC of ingredient alone, times that of ECMT-314” value is 0.95 times. For the same compound, the “MIC50, expressed as CBD” value in assay [2] (Table 24, studies with manuka oil β-triketones and CBD) is 0.006% CBD (v/v) %. For the same compound, the “average MIC of ingredient alone, times that of ECMO-314” value in assay [3] stood at 0.2 times. Moreover, the “average MIC of ingredient alone, times that of ECMT-314” value in assay [3] is listed as 0.1 times. For the same compound, the “AVERAGE MIC” value in assay [3] (Table 35 (Example 25)) was 0.018 % v/v.

For the origin of these results see patent US20230372425A1, “TOPICAL COMPOSITIONS CONTAINING MANUKA OIL AND PALMAROSA OIL FOR TREATING SKIN CONDITIONS” (Manuka Therapeutics Ltd., priority 2021, published 2023).
